# Where two headings read alike, the source gives them in different places.
# Columns and labels:
# human GLP-1R [1] = target: human GLP-1R (Homo sapiens, UniProt P43220, G168S); assay: CHO GLP-1R Clone H6 - Assay 1 (HTRF cAMP agonist assay); type: cell-based; conditions: for EC50: CHO GLP-1R Clone H6, cAMP HTRF, geometric mean; for Emax: CHO GLP-1R Clone H6, arithmetic mean, relative to saturating GLP-1 (1 μM)
# human GLP-1R [2] = target: human GLP-1R (Homo sapiens (Human), UniProt P43220, L260F); assay: CHO GLP-1R Clone C6 - Assay 2 (HTRF cAMP agonist assay, low receptor density); conditions: for EC50: CHO GLP-1R Clone C6 (low receptor density), cAMP HTRF, geometric mean; for Emax: read-out: Assay 2 Emax (%), CHO GLP-1R Clone C6 (low receptor density), arithmetic mean, relative to saturating GLP-1 (1 μM)
# Sequence of human GLP-1R (Homo sapiens (Human), UniProt P43220, L260F) (P43220 24-463 L260F): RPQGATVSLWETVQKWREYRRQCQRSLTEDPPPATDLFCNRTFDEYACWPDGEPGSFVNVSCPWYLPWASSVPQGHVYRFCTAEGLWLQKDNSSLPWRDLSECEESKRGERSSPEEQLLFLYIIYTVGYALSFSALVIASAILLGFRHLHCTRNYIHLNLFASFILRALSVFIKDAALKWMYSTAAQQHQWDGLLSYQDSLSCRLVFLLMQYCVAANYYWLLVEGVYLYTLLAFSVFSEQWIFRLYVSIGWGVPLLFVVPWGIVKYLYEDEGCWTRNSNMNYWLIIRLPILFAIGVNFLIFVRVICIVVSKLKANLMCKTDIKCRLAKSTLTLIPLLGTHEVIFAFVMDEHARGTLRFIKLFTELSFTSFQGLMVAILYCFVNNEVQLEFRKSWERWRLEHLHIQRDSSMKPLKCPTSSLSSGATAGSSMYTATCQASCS
# Protocol: CHO GLP-1R Clone C6—Assay 2
# GLP-1R-mediated agonist activity was determined with a cell-based functional assay utilizing an HTRF (Homogeneous Time-Resolved Fluorescence) cAMP detection kit (cAMP HI Range Assay Kit; Cis Bio cat #62AM6PEJ) that measures cAMP levels in the cell. The method is a competitive immunoassay between native cAMP produced by the cells and exogenous cAMP labeled with the dye d2. The tracer binding is visualized by a mAb anti-cAMP labeled with Cryptate. The specific signal (i.e. energy transfer) is inversely proportional to the concentration of cAMP in either a standard or an experimental sample.
# The human GLP-1R coding sequence (NCBI Reference Sequence NP_002053.3, including naturally-occurring variant Leu260Phe) was subcloned into pcDNA5-FRT-TO and a clonal CHO cell line stably expressing a low receptor density was isolated using the Flp-In™ T-Rex™ System, as described by the manufacturer (ThermoFisher).
# Cells were removed from cryopreservation, re-suspended in 40 mL of Dulbecco's Phosphate Buffered Saline (DPBS—Lonza Cat #17-512Q) and centrifuged at 800×g for 5 minutes at 22° C. The DPBS was aspirated, and the cell pellet was re-suspended in 10 mL of complete growth medium (DMEM:F12 1:1 Mixture with HEPES, L-Gln, 500 mL (DMEM/F12 Lonza Cat #12-719F), 10% heat inactivated fetal bovine serum (Gibco Cat #16140-071), 5 mL of 100× Pen-Strep (Gibco Cat #15140-122), 5 mL of 100×L-Glutamine (Gibco Cat #25030-081), 700 μg/mL Hygromycin (Invitrogen Cat #10687010) and 15 μg/mL Blasticidin (Gibco Cat # R21001). A 1 mL sample of the cell suspension in growth media was counted on a Becton Dickinson ViCell to determine cell viability and cell count per mL. The remaining cell suspension was then adjusted with growth media to deliver 1600 viable cells per well using a Matrix Combi Multidrop reagent dispenser, and the cells were dispensed into a white 384 well tissue culture treated assay plate (Corning 3570). The assay plate was then incubated for 48 hours at 37° C. in a humidified environment (95% O2, 5% CO2)
# Varying concentrations of each compound to be tested (in DMSO) were diluted in assay buffer [HBSS with Calcium/Magnesium (Lonza/BioWhittaker cat #10-527F)/0.1% BSA (Sigma Aldrich cat # A7409-1L)/20 mM HEPES (Lonza/BioWhittaker cat #17-737E)] containing 100 μM 3-isobutyl-1-methylxanthin (IBMX; Sigma cat #15879). The final DMSO concentration in the compound/assay buffer mixture is 1%.
# After 48 hours, the growth media was removed from the assay plate wells, and the cells were treated with 20 μL of the serially diluted compound in assay buffer for 30 minutes at 37° C. in a humidified environment (95% O2, 5% CO2). Following the 30 minute incubation, 10 μL of labeled d2 cAMP and 10 μL of anti-cAMP antibody (both diluted 1:20 in cell lysis buffer; as described in the manufacturer's assay protocol) were added to each well of the assay plate. The plates were then incubated at room temperature and after 60 minutes, changes in the HTRF signal were read with an Envision 2104 multi-label plate reader using excitation of 330 nm and emissions of 615 and 665 nm. Raw data were converted to nM cAMP by interpolation from a cAMP standard curve (as described in the manufacturer's assay protocol) and the percent effect was determined relative to a saturating concentration of the full agonist GLP-1 (1 μM) included on each plate. EC50 determinations were made from agonist dose response curves analyzed with a curve fitting program using a 4-parameter logistic dose response equation.
# Sequence of human GLP-1R (Homo sapiens, UniProt P43220, G168S) (P43220 24-463 G168S limits assumed): as the sequence (P43220 24-463 L260F) above, with G145S, F237L counted along it
Compound,EC50 (human GLP-1R [1]) [nM],Emax (human GLP-1R [1]) [%],EC50 (human GLP-1R [2]; read-out: Assay 2 EC50) [nM],Emax (human GLP-1R [2]) [%],EC50 (human GLP-1R [2]; Assay 2 EC50 (nM)) [nM]
"COCCn1c(CN2CCC(c3cccc4c3OC(C)(c3ccc(Cl)cc3)O4)CC2)nc2ccc(C(=O)O)cc21 (stereo not drawn) [Example 33, 2-({4-[2-(4-chlorophenyl)-2-methyl-1,3-benzodioxol-4-yl]piperidin-1-yl}methyl)-1-(2-methoxyethyl)-1H-benzimidazole-6-carboxylic acid]",2.6,85,100,86,
"COCCn1c(CN2CCC(c3cccc4c3OC(C)(c3ccc(C#N)cc3)O4)CC2)nc2ccc(C(=O)O)cc21 (stereo not drawn) [Example 34, 2-({4-[2-(4-cyanophenyl)-2-methyl-1,3-benzodioxol-4-yl]piperidin-1-yl}methyl)-1-(2-methoxyethyl)-1H-benzimidazole-6-carboxylic acid]",7.8,98,110,88,
"COCCn1c(CN2CCC(c3cccc4c3OC(C)(c3ccc(OC)cc3F)O4)CC2)nc2ccc(C(=O)O)cc21 (stereo not drawn) [Example 35, 2-({4-[2-(2-fluoro-4-methoxyphenyl)-2-methyl-1,3-benzodioxol-4-yl]piperidin-1-yl}methyl)-1-(2-methoxyethyl)-1H-benzimidazole-6-carboxylic acid]",6.6,86,170,89,
"COCCn1c(CN2CCC(c3cccc4c3OC(C)(c3ccccc3OC)O4)CC2)nc2ccc(C(=O)O)cc21 (stereo not drawn) [Example 37, 1-(2-methoxyethyl)-2-({4-[2-(2-methoxyphenyl)-2-methyl-1,3-benzodioxol-4-yl]piperidin-1-yl}methyl)-1H-benzimidazole-6-carboxylic acid]",81,100,1000,83,
"COCCn1c(CN2CCC(c3cccc4c3OC(C)(c3ccc(F)cc3)O4)CC2)nc2ccc(C(=O)O)cc21 (stereo not drawn) [Example 38, 2-({4-[2-(4-fluorophenyl)-2-methyl-1,3-benzodioxol-4-yl]piperidin-1-yl}methyl)-1-(2-methoxyethyl)-1H-benzimidazole-6-carboxylic acid]",10,87,240,73,
"COCCn1c(CN2CCC(c3cccc4c3OC(C)(c3ccc(C(F)(F)F)cc3)O4)CC2)nc2ccc(C(=O)O)cc21 (stereo not drawn) [Example 40, 1-(2-methoxyethyl)-2-[(4-{2-methyl-2-[4-(trifluoromethyl)phenyl]-1,3-benzodioxol-4-yl}piperidin-1-yl)methyl]-1H-benzimidazole-6-carboxylic acid]",14,88,130,73,
"COCCn1c(CN2CCC(c3cccc4c3OC(C)(c3ccc(F)c(F)c3)O4)CC2)nc2ccc(C(=O)O)cc21 (stereo not drawn) [Example 41, 2-({4-[2-(3,4-difluorophenyl)-2-methyl-1,3-benzodioxol-4-yl]piperidin-1-yl}methyl)-1-(2-methoxyethyl)-1H-benzimidazole-6-carboxylic acid]",91,78,,74,2000
"COCCn1c(CN2CCC(c3cccc4c3OC(C)(c3ccc(C)nc3)O4)CC2)nc2ccc(C(=O)O)cc21 (stereo not drawn) [Example 42, 1-(2-methoxyethyl)-2-({4-[2-methyl-2-(6-methylpyridin-3-yl)-1,3-benzodioxol-4-yl]piperidin-1-yl}methyl)-1H-benzimidazole-6-carboxylic acid]",120,93,1700,83,
"CC(=O)N(C)CCn1c(CN2CCC(c3cccc4c3OC(C)(c3ccc(Cl)cc3F)O4)CC2)nc2ccc(C(=O)O)cc21 (stereo not drawn) [Example 43, 1-{2-[acetyl(methyl)amino]ethyl}-2-({4-[2-(4-chloro-2-fluorophenyl)-2-methyl-1,3-benzodioxol-4-yl]piperidin-1-yl}methyl)-1H-benzimidazole-6-carboxylic acid]",3.5,88,65,86,
"CN(C)S(=O)(=O)CCn1c(CN2CCC(c3cccc4c3OC(C)(c3ccc(Cl)cc3F)O4)CC2)nc2ccc(C(=O)O)cc21 (stereo not drawn) [Example 47, 2-({4-[2-(4-chloro-2-fluorophenyl)-2-methyl-1,3-benzodioxol-4-yl]piperidin-1-yl}methyl)-1-[2-(dimethylsulfamoyl)ethyl]-1H-benzimidazole-6-carboxylic acid]",42,75,1400,76,
"CC1(c2ccc(Cl)cc2F)Oc2cccc(C3CCN(Cc4nc5ccc(C(=O)O)cc5n4CCN4CCCC4=O)CC3)c2O1 (stereo not drawn) [Example 48, 2-({4-[2-(4-chloro-2-fluorophenyl)-2-methyl-1,3-benzodioxol-4-yl]piperidin-1-yl}methyl)-1-[2-(2-oxopyrrolidin-1-yl)ethyl]-1H-benzimidazole-6-carboxylic acid]",14,81,280,73,
"CNC(=O)Cn1c(CN2CCC(c3cccc4c3OC(C)(c3ccc(Cl)cc3F)O4)CC2)nc2ccc(C(=O)O)cc21 (stereo not drawn) [Example 52, 2-({4-[2-(4-chloro-2-fluorophenyl)-2-methyl-1,3-benzodioxol-4-yl]piperidin-1-yl}methyl)-1-[2-(methylamino)-2-oxoethyl]-1H-benzimidazole-6-carboxylic acid]",32,85,570,80,
"CC1(c2ccc(Cl)cc2F)Oc2cccc(C3CCN(Cc4nc5ccc(C(=O)O)cc5n4CC4CCOC4)CC3)c2O1 (stereo not drawn) [Example 56, 2-({4-[2-(4-chloro-2-fluorophenyl)-2-methyl-1,3-benzodioxol-4-yl]piperidin-1-yl}methyl)-1-(tetrahydrofuran-3-ylmethyl)-1H-benzimidazole-6-carboxylic acid]",1.2,87,11,81,

# The next lines start with the values.
EC50 (human GLP-1R [1]) [nM],Emax (human GLP-1R [1]) [%],EC50 (human GLP-1R [2]; read-out: Assay 2 EC50) [nM],Emax (human GLP-1R [2]) [%],EC50 (human GLP-1R [2]; Assay 2 EC50 (nM)) [nM],Compound
9.9,81,220,79,,"CC1(c2ccc(Cl)cc2F)Oc2cccc(C3CCN(Cc4nc5ccc(C(=O)O)cc5n4Cc4ccccn4)CC3)c2O1 (stereo not drawn) [Example 45, 2-({4-[2-(4-chloro-2-fluorophenyl)-2-methyl-1,3-benzodioxol-4-yl]piperidin-1-yl}methyl)-1-(pyridin-2-ylmethyl)-1H-benzimidazole-6-carboxylic acid]"
5.2,95,57,96,,"CC1(c2ccc(Cl)cc2F)Oc2cccc(C3CCN(Cc4nc5ccc(C(=O)O)cc5n4CCN4CCOC4=O)CC3)c2O1 (stereo not drawn) [Example 46, 2-({4-[2-(4-chloro-2-fluorophenyl)-2-methyl-1,3-benzodioxol-4-yl]piperidin-1-yl}methyl)-1-[2-(2-oxo-1,3-oxazolidin-3-yl)ethyl]-1H-benzimidazole-6-carboxylic acid]"
12,87,140,92,,"CC1(c2ccc(Cl)cc2F)Oc2cccc(C3CCN(Cc4nc5ccc(C(=O)O)cc5n4CCn4ccnc4)CC3)c2O1 (stereo not drawn) [Example 50, 2-({4-[2-(4-chloro-2-fluorophenyl)-2-methyl-1,3-benzodioxol-4-yl]piperidin-1-yl}methyl)-1-[2-(1H-imidazol-1-yl)ethyl]-1H-benzimidazole-6-carboxylic acid]"
19,80,280,81,,"CCn1ccnc1Cn1c(CN2CCC(c3cccc4c3OC(C)(c3ccc(Cl)cc3F)O4)CC2)nc2ccc(C(=O)O)cc21 (stereo not drawn) [Example 51, 2-({4-[2-(4-chloro-2-fluorophenyl)-2-methyl-1,3-benzodioxol-4-yl]piperidin-1-yl}methyl)-1-[(1-ethyl-1H-imidazol-2-yl)methyl]-1H-benzimidazole-6-carboxylic acid]"
3.1,87,52,84,,"CC1(c2ccc(Cl)cc2F)Oc2cccc(C3CCN(Cc4nc5ccc(C(=O)O)cc5n4CCn4cccn4)CC3)c2O1 (stereo not drawn) [Example 53, 2-({4-[2-(4-chloro-2-fluorophenyl)-2-methyl-1,3-benzodioxol-4-yl]piperidin-1-yl}methyl)-1-[2-(1H-pyrazol-1-yl)ethyl]-1H-benzimidazole-6-carboxylic acid]"
18,82,160,64,,"CC1(c2ccc(Cl)cc2F)Oc2cccc(C3CCN(Cc4nc5ccc(C(=O)O)cc5n4CCCn4cncn4)CC3)c2O1 (stereo not drawn) [Example 54, 2-({4-[2-(4-chloro-2-fluorophenyl)-2-methyl-1,3-benzodioxol-4-yl]piperidin-1-yl}methyl)-1-[3-(1H-1,2,4-triazol-1-yl)propyl]-1H-benzimidazole-6-carboxylic acid]"
74,81,1100,50,,"Cn1cnc(CCn2c(CN3CCC(c4cccc5c4OC(C)(c4ccc(Cl)cc4F)O5)CC3)nc3ccc(C(=O)O)cc32)c1 (stereo not drawn) [Example 55, 2-({4-[2-(4-chloro-2-fluorophenyl)-2-methyl-1,3-benzodioxol-4-yl]piperidin-1-yl}methyl)-1-[2-(1-methyl-1H-imidazol-4-yl)ethyl]-1H-benzimidazole-6-carboxylic acid]"
15,86,500,98,,"Cn1ncnc1Cn1c(CN2CCC(c3cccc4c3OC(C)(c3ccc(Cl)cc3F)O4)CC2)nc2ccc(C(=O)O)cc21 (stereo not drawn) [Example 57, 2-({4-[2-(4-chloro-2-fluorophenyl)-2-methyl-1,3-benzodioxol-4-yl]piperidin-1-yl}methyl)-1-[(1-methyl-1H-1,2,4-triazol-5-yl)methyl]-1H-benzimidazole-6-carboxylic acid]"

# — US10676465B2, “GLP-1 receptor agonists and uses thereof” (Pfizer Inc., priority 2018, dated 2020)
